Assay results reported in patent publication US10080779B2, “Method for increasing the expression of anti-microbial peptides by keratinocytes comprising administering a composition comprising IL-17, TNF-alpha and OSM” (Universite D'Angers, priority 2004, dated 2018).

Legend:
[1] = test system: NHEK; assay: cDNA macroarrays analysis of 36 cytokines on 154 genes in NHEK; format: cell-based, human; settings: 10 ng/ml, 24 h
Protocol: The comparison of the effects of 36 different cytokines on the expression of 154 genes of potential interest for skin physiology was performed using home-made cDNA macroarrays analysis. After cytokine stimulation, total RNA was extracted using TRIzoI® Reagent (Invitrogen life Technologies) and conventional 33P-cDNA target synthesis and hybridization were performed (Boniface et al, 2007). Genes were considered regulated if expression levels differed more than 3-fold relative to untreated control and 3-fold relative to mean background noise.

[2] = test system: normal human keratinocytes (NHEK); assay: Cytokine cocktails on S100A7, hBD2/4, KRT10 mRNA in NHEK (RT-Q-PCR); format: cell-based; settings: NHEK 24 hrs, 1 ng/ml each
Protocol: Quantitative real time PCR was carried out using the LightCycler-FastStart DNA Master^PLUS SYBR Green I kit (Roche, Mannheim, Germany). The reaction components were 1× FastStart DNA Master^PLUS SYBR Green I and 0.5 μM of forward and reverse primers for S100A7 (forward 5′-[…]-3′ (SEQ ID No: 9) and reverse 5′-[…]-3′ (SEQ ID No: 10)), S100A8 (Pattyn, Speleman et al. 2003), S100A9 (forward 5′-[…]-3′ (SEQ ID No: 11) and reverse 5′-[…]-3′ (SEQ ID No: 12)), hBD2/4 (forward 5′-[…]-3′ (SEQ ID No: 13) and reverse 5′-[…]-3′ (SEQ ID No: 14)), KRT10 (forward 5′-[…]-3′ (SEQ ID No: 15) and reverse 5′-[…]-3′ (SEQ ID No: 16)), and hydroxymethyl-bilane synthase (HMBS) as a housekeeping gene (Vandesompele, De Preter et al. 2002). After cDNA fluorescent quantification using propidium iodide, 250 ng, 25 ng and 2.5 ng of cDNA were added as PCR template in the LightCycler glass capillaries. The cycling conditions comprised a 10 min polymerase activation at 95° C. and 50 cycles at 95° C. for 10 s, 64° C. for 5 s and 72° C. for 18 s with a single fluorescence measurement. […] A mathematical model was used to determine the relative quantification of target genes compared to HMBS reference gene (Pfaffl 2001).
To that aim, confluent normal human keratinocytes (NHEK) were treated for 24 hrs with the indicated mix of cytokines (each cytokine at 1 ng/ml final concentration). Total RNA was extracted, reverse-transcribed and the expression of the selected genes was analyzed by real-time PCR as described.

[3] = test system: RHE; assay: RHE histology and immunohistochemistry (Example 14); format: cell-based, human; settings: 72 h; for CK10, LOR and FLG expression (immunohistology) / IVL expression (immunohistology) / S100A7 expression (immunohistology): RHE; for CK10, LOR and FLG expression (immunohistology) / IVL expression (immunohistology) / S100A7 expression (immunohistology) / RHE histology: single cytokines
Protocol: (§1) Normal human epidermal keratinocytes (NHEK) were obtained as previously described, from surgical samples of healthy breast skin (Boniface et al, 2005). NHEK were cultured to 80% of confluence allowing the expression of a large panel of keratinocyte differentiation markers, and then starved for 24 h in Keratinocyte SFM containing 0.03 mM Ca^2+ (Invitrogen Life Technologies, Cergy Pontoise, France) before stimulation. Confluent differentiated cells were stimulated with or without recombinant IL-17A, OSM, TNFα, IL-22 and IL-1α alone at maximum effective concentrations (reported previously around 10 ng/ml (Boniface et al, 2005 and Boniface et al, 2007)) or in combination (R&D systems Europe, Lille, France) during 2 h to 72 h for mRNA quantification. RHE were generated on polycarbonate culture inserts, from surgical samples of paediatric foreskins as previously described (Guenou et al., 2009). RHE were stimulated with or without recombinant IL-17A, OSM, TNFα, IL-22 and IL-1α alone or in combination, with or without a Janus protein Tyrosine Kinases (JAKs) inhibitor 10 μM (Calbiochem, 420099), during 24 h for mRNA quantification or during 72 h for immunohistological analysis.
RHE were washed and fixed with formaldehyde solution. Fixed tissues were dehydrated with increasing ethanol concentrations, embedded in paraffin and sections were carried out using a microtome (4 μm thickness). The sections were deparaffinised, washed and incubated with hydrogen peroxide. The sections were incubated with anti-CK10 (SantaCruz, SC-23877), anti-LOR (Eurogentec, PRB-145P), anti-FLG (SantaCruz, SC-66192), anti-IVL (Biomedical Technologies, BT-601), anti-S100A7 (Clinisciences, IMG-409A) and then detected using a biotin-conjugated secondary antibody (Vector, RTU vectastain universal quick kit, PK-7800). After peroxidase-conjugated streptavidine (Vector, RTU vectastain universal quick kit, PK-7800) and peroxidase substrate addition (Dako, Substrat hyper-sensible AEC+), nuclei were counter-stained using a solution of hematoxylin. Sections were observed using a NIKON E400 microscope. The images were captured using a NIKON DS-Ril and processed with NIS-Elements 3.10 software.

[4] = test system: NHEK; assay: RT-QPCR of antimicrobial peptide and chemokine genes in NHEK; format: cell-based, human; settings: 10 ng/ml, 24 h
Protocol: (§2) NHEK were obtained as previously described, from surgical samples of healthy breast skin (Boniface et al, 2005). NHEK were cultured to 80% of confluence and then starved for 24 h in Keratinocyte SFM without addition of growth factors before stimulation. Cells were stimulated with or without 10 ng/ml of recombinant IL-17A, OSM, TNFα, IL-22 and IL-1α alone or in combination (R&D systems Europe, Lille, France) during 24 h for mRNA quantification or 48 h to 96 h for protein quantification.
NHEK and skin total RNA were isolated and reverse-transcribed as previously described (Boniface et al, 2005). Quantitative real time PCR was carried using the LightCycler-FastStart DNA Master SYBR® Green I kit on LightCycler 480 (Roche Diagnostics, Meylan, France). The reaction components were 1×DNA Master Mix, and 0.5 μM of HPLC purified sense and anti-sense oligonucleotides purchased from Eurogentec (Eurogentec France, Angers, France), designed using Primer3 software. Samples were normalized to three independent control housekeeping genes (G3PDH, RPL13A or ACTB for human samples and G3PDH, HMBS or B2m for mouse samples) and reported according to the ΔΔCT method as RNA fold increase: 2^ΔΔCT=2^ΔCT sample−ΔCT eference. For comparison of normal skin and psoriatic skin the REST 2008 software was used (Pfaffl et al., 2002).

[5] = test system: NHEK; assay: Cytokine measurement by ELISA in NHEK culture supernatants; format: cell-based, human; settings: 96 h; for Redundancy with the family member it replaces in M5 (BD2 and CXCL8 production): IL-1β for IL-1α, TNFβ for TNFα, IL-17F for IL-17A, IL-24 for IL-22, IL-6 for OSM
Protocol: as §2
Levels of BD2, BD3 and CXCL8 were determined using Human ELISA development kit (Peprotech), and CXCL1 and CXCL5 with DuoSet reagents (R&D Systems Europe).

[6] = test system: RHE; assay: KDM mRNA in reconstituted human epidermis (RT-PCR); format: cell-based; settings: 24 h
Protocol: as §1
(§3) NHEK, RHE and murine skin total RNA were isolated using NucleoSpin® RNA II kit (Macherey-Nagel, Hoerdt, France) and reverse-transcribed with SuperScript® II Reverse Transcriptase (Invitrogen Life Technologies) according to the manufacturer's instructions. Quantitative real time PCR was carried out using the LightCycler-FastStart DNA Master SYBR® Green I kit on LightCycler 480 (Roche Diagnostics, Meylan, France). The reaction components were 1×DNA Master Mix, and 0.5 μM of HPLC purified sense and anti-sense oligonucleotides purchased from Eurogentec (Eurogentec France, Angers, France), designed using Primer3 software. The stability of the housekeeping gene expression has been assessed by using GeNorm algorithm. […] Thus samples were normalized to G3PDH housekeeping gene and reported according to the ΔΔCT method as RNA fold increase: 2^ΔΔCT=2^ΔCT sample−ΔCT reference.

[7] = test system: NHEK; assay: Keratinocyte differentiation marker (KDM) mRNA in NHEK (RT-PCR); format: cell-based, human; settings: 24 h; for mRNA expression of CK1, DSG1, DSC1, FLG, CLSP, LOR and FABPS: single cytokines 10 ng/ml
Protocol: as §1, §3

IL-17A: recombinant cytokine; IL-17 designates IL-17A, IL-17B or a mixture, preferably IL-17A
Number of genes (of 154) whose expression is modified with at least a three fold increase or decrease [1]: at least five genes | Decrease of the activity of the 5 cytokines reference mix on omission of the cytokine, S100A7 [2]: 4.5 fold | Decrease of the activity of the 5 cytokines reference mix on omission of the cytokine, hBD2/4 [2]: 36 fold | CK10, LOR and FLG expression (immunohistology) [3]: did not exhibit any activity | IVL expression (immunohistology) [3]: discreetly induced | S100A7 expression (immunohistology) [3]: very slightly | RHE histology [3]: does not modify RHE histology | Number of the 21 chemokine and antimicrobial peptide genes upregulated [4]: 16 | BD2 production, single cytokines ([5]; 10 ng/ml): most potent inducers | Contribution to M5 activity on BD2 and CXCL8 production (successive removal) [5]: more critical to the activity of the M5 combination | IVL mRNA expression [6]: discretely inhibited | Number of KDM whose control mRNA expression is partially restored on removal of the cytokine from M5 [7]: 3 KDM | mRNA expression of CK1, DSG1, DSC1, FLG, CLSP, LOR and FABPS [7]: minor activities

IL-1β: cytokine of the same family as IL-1α
Number of genes (of 154) whose expression is modified with at least a three fold increase or decrease [1]: at least five genes | Redundancy with the family member it replaces in M5 (BD2 and CXCL8 production) [5]: total redundancy

TNFα
Number of genes (of 154) whose expression is modified with at least a three fold increase or decrease [1]: at least five genes | Decrease of the activity of the 5 cytokines reference mix on omission of the cytokine, S100A7 [2]: 3 fold | Decrease of the activity of the 5 cytokines reference mix on omission of the cytokine, hBD2/4 [2]: 5.6 fold | CK10, LOR and FLG expression (immunohistology) [3]: did not exhibit any activity | IVL expression (immunohistology) [3]: discreetly induced | S100A7 expression (immunohistology) [3]: very slightly | RHE histology [3]: does not modify RHE histology | Number of the 21 chemokine and antimicrobial peptide genes upregulated [4]: 20 | Contribution to M5 activity on BD2 and CXCL8 production (successive removal) [5]: more critical to the activity of the M5 combination | Rank as contributor to keratinocyte differentiation inhibition (removal from M5) [7]: most potent cytokines for keratinocyte differentiation inhibition | mRNA expression of CK1, DSG1, DSC1, FLG, CLSP, LOR and FABPS [7]: downregulate mRNA expression

CC(C)(C)c1nc2c3ccc(F)cc3c3c(=O)[nH]ccc3c2[nH]1 [JAKs inhibitor, reference compound]
Effect on M5-induced RHE disruption and hyperplasia ([3]; JAKs inhibitor 10 μM with M5 (3 ng/ml)): protects the integrity of the RHE and blocked the epidermal hyperplasia

IL-6: cytokine of the same family as OSM
Number of genes (of 154) whose expression is modified with at least a three fold increase or decrease [1]: at least five genes | Redundancy with the family member it replaces in M5 (BD2 and CXCL8 production) [5]: weak redundancy

B1: TNFβ: cytokine of the same family as TNFα (protein, UniProt P01374 35-205, looked up)
Lymphotoxin-alpha: LPGVGLTPSAAQTARQHPKMHLAHSTLKPAAHLIGDPSKQNSLLWRANTDRAFLQDGFSLSNNSLLVPTSGIYFVYSQVVFSGKAYSPKATSSPLYLAHEVQLFSSQYPFHVPLLSSQKMVYPGLQEPWLHSMYHGAAFQLTQGDQLSTHTDGIPHLVLSPSTVFFGAFAL
Redundancy with the family member it replaces in M5 (BD2 and CXCL8 production) [5]: strong redundancy

B2: INFγ: gamma Interferon (protein, UniProt P01579 24-161, looked up)
Interferon gamma: QDPYVKEAENLKKYFNAGHSDVADNGTLFLGILKNWKEESDRKIMQSQIVSFYFKLFKNFKDDQSIQKSVETIKEDMNVKFFNSNKKKRDDFEKLTNYSVTDLNVQRKAIHELIQVMAELSPAAKTGKRKRSQMLFRG
Effect of depleting the cytokine from the mix on activity of the complete cocktail [2]: did not significantly decrease the activity

B3: IL-17F: cytokine of the same family as IL-17A (protein, UniProt Q96PD4 31-163, looked up)
Interleukin-17F: RKIPKVGHTFFQKPESCPPVPGGSMKLDIGIINENQRVSMSRNIESRSTSPWNYTVTWDPNRYPSEVVQAQCRNLGCINAQGKEDISMNSVPIQQETLVVRRKHQGCSVSFQLEKVLVTVGCTCVTPVIHHVQ
Redundancy with the family member it replaces in M5 (BD2 and CXCL8 production) [5]: limited redundancy

B4: IL-24: cytokine of the same family as IL-22 (protein, UniProt Q13007 52-206, looked up)
Interleukin-24: QEFHFGPCQVKGVVPQKLWEAFWAVKDTMQAQDNITSARLLQQEVLQNVSDAESCYLVHTLLEFYLKTVFKNYHNRTVEVRTLKSFSTLANNFVLIVSQLQPSQENEMFSIRDSAHRRFLLFRRAFKQLDVEAALTKALGEVDILLTWMQKFYKL
Number of genes (of 154) whose expression is modified with at least a three fold increase or decrease [1]: at least five genes | Redundancy with the family member it replaces in M5 (BD2 and CXCL8 production) [5]: limited redundancy
